Each structure is given as a SMILES string.

The test system of this experiment is androgen receptor (AR) in LNCaP and/or VCaP cells. The experiment can be described thus: Androgen Receptor ELISA assay (AR degradation). The following applies: degradation of AR ELISA in LNCaP and/or VCaP cells; Table 2C; read-out: DC50 Code*. The format is cell-based. In short, it runs like this: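 VCaP cells grown ≥3 days, then treated 5 h with compound in media containing 1 nM R1881 (10× stock). Cells lysed and AR quantified by sandwich ELISA (mouse AR detection Ab, HRP anti-mouse, TMB). DC50 and Dmax derived from AR degradation.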

As to `Cc1cc(O[C@H]2C(C)(C)[C@H](NC(=O)c3ccc(CN4CCOC[C@@H]4CN(C)[C@H]4C[C@H](Oc5ccc6c(c5)C(=O)N(C5CCC(=O)NC5=O)C6=O)C4)cc3)C2(C)C)cc(C)c1C#N` (stereo partly drawn) [compound 148, N-((1r,3R)-3-(4-cyano-3,5-dimethylphenoxy)-2,2,4,4-tetramethylcyclobutyl)-4-(((3R)-3-((((1r,3R)-3-((2-(2,6-dioxopiperidin-3-yl)-1,3-dioxoisoindolin-5-yl)oxy)cyclobutyl) (methyl)amino)methyl)morpholino)methyl) benzamide], the DC50 is less than 1 nM.
In the case of `Cc1cc(O[C@H]2C(C)(C)[C@H](NC(=O)c3ccc(CN4CCOC[C@@H]4CN(C)[C@H]4C[C@H](Oc5ccc6c(c5)C(=O)N(C5CCC(=O)NC5=O)C6=O)C4)cc3)C2(C)C)cc(C)c1C#N` (stereo partly drawn) [compound 151, N-((1r,3S)-3-(4-cyano-3,5-dimethylphenoxy)-2,2,4,4-tetramethylcyclobutyl)-4-(((3S)-3-((((1r,3S)-3-((2-(2,6-dioxopiperidin-3-yl)-1,3-dioxoisoindolin-5-yl)oxy)cyclobutyl) (methyl)amino)methyl)morpholino)methyl) benzamide], the 50% degradation concentration (DC50) is less than 1 nM.
Then `Cc1cc(O[C@H]2C(C)(C)[C@H](NC(=O)c3ccc(N4CCC(CN(C)[C@H]5CC[C@@H](Oc6ccc7c(c6)C(=O)N(C6CCC(=O)NC6=O)C7=O)C5)CC4)cc3)C2(C)C)cc(C)c1C#N` (stereo partly drawn) [compound 152, N-((1r,3S)-3-(4-cyano-3,5-dimethylphenoxy)-2,2,4,4-tetramethylcyclobutyl)-4-(4-((((1S,3R)-3-((2-(2,6-dioxopiperidin-3-yl)-1,3-dioxoisoindolin-5-yl)oxy)cyclopentyl) (methyl)amino)methyl)piperidin-1-yl)benzamide], with less than 1 nM; and `Cc1cc(O[C@H]2C(C)(C)[C@H](NC(=O)c3ccc(N4CCC(CN(C)[C@H]5CC[C@H](Oc6ccc7c(c6)C(=O)N(C6CCC(=O)NC6=O)C7=O)C5)CC4)cc3)C2(C)C)cc(C)c1C#N` (stereo partly drawn) [compound 154, N-((1r,3S)-3-(4-cyano-3,5-dimethylphenoxy)-2,2,4,4-tetramethylcyclobutyl)-4-(4-((((1S,3S)-3-((2-(2,6-dioxopiperidin-3-yl)-1,3-dioxoisoindolin-5-yl)oxy)cyclopentyl) (methyl)amino)methyl)piperidin-1-yl)benzamide], with less than 1 nM; and `COCCOCCOCCOCCOCCN(CC1CCN(c2ncc(C(=O)N[C@H]3C(C)(C)[C@H](Oc4cc(C)c(C#N)c(C)c4)C3(C)C)cn2)CC1)[C@H]1C[C@H](Oc2ccc3c(c2)C(=O)N(C2CCC(=O)NC2=O)C3=O)C1` (some centres unmarked) [compound 155, N-((1r,3r)-3-(4-cyano-3,5-dimethylphenoxy)-2,2,4,4-tetramethylcyclobutyl)-2-(4-(2-((1r,3r)-3-((2-(2,6-dioxopiperidin-3-yl)-1,3-dioxoisoindolin-5-yl)oxy)cyclobutyl)-5,8,11,14,17-pentaoxa-2-azaoctadecyl)piperidin-1-yl)pyrimidine-5-carboxamide], with less than 1 nM.
`CC1(C)[C@H](NC(=O)c2ccc(N3CCC(CN4CCN(c5ccc6c(c5)C(=O)N([C@]5(C#N)CCC(=O)NC5=O)C6)CC4)CC3)cc2)C(C)(C)[C@H]1Oc1ccc(C#N)c(Cl)c1` [compound 156, N-((1r,3r)-3-(3-chloro-4-cyanophenoxy)-2,2,4,4-tetramethylcyclobutyl)-4-(4-((4-(2-((S)-3-cyano-2,6-dioxopiperidin-3-yl)-3-oxoisoindolin-5-yl)piperazin-1-yl)methyl)piperidin-1-yl)benzamide]: the DC50 is more than 100 nM.
Consider `COc1cc(O[C@H]2C[C@H](N(CC3CC4(C3)CN(c3cnc(C(=O)N[C@H]5C(C)(C)[C@H](Oc6cc(C)c(C#N)c(C)c6)C5(C)C)cn3)C4)C(C)C)C2)cc2c1C(=O)N(C1CCC(=O)NC1=O)C2=O` (some centres unmarked) [compound 158, N-((1r,3r)-3-(4-cyano-3,5-dimethylphenoxy)-2,2,4,4-tetramethylcyclobutyl)-5-(6-((((1r,3r)-3-((2-(2,6-dioxopiperidin-3-yl)-7-methoxy-1,3-dioxoisoindolin-5-yl)oxy)cyclobutyl) (isopropyl)amino)methyl)-2-azaspiro[3.3]heptan-2-yl)pyrazine-2-carboxamide], for which the DC50 was less than 1 nM.
Regarding `Cc1cc(O[C@H]2C(C)(C)[C@H](NC(=O)c3ccc(N4CCC(CN(C(C)C)[C@H]5C[C@H](Oc6ccc7c(c6)C(=O)N([C@@H]6CCC(=O)NC6=O)C7=O)C5)CC4)cc3)C2(C)C)cc(C)c1C#N` [compound 160, N-((1r,3r)-3-(4-cyano-3,5-dimethylphenoxy)-2,2,4,4-tetramethylcyclobutyl)-4-(4-((((1R,3r)-3-((2-((R)-2,6-dioxopiperidin-3-yl)-1,3-dioxoisoindolin-5-yl)oxy)cyclobutyl) (isopropyl)amino)methyl)piperidin-1-yl)benzamide], the DC50 is less than 1 nM.
Turning to `Cc1cc(O[C@H]2C(C)(C)[C@H](NC(=O)c3ccc(N4CCC(CN(C)[C@@H]5CC[C@@H](Oc6ccc7c(c6)C(=O)N(C6CCC(=O)NC6=O)C7=O)C5)CC4)cc3)C2(C)C)cc(C)c1C#N` (stereo partly drawn) [compound 161, N-((1r,3R)-3-(4-cyano-3,5-dimethylphenoxy)-2,2,4,4-tetramethylcyclobutyl)-4-(4-((((1R,3R)-3-((2-(2,6-dioxopiperidin-3-yl)-1,3-dioxoisoindolin-5-yl)oxy)cyclopentyl) (methyl)amino)methyl)piperidin-1-yl)benzamide], the DC50 was less than 1 nM.
For the molecule `Cc1cc(O[C@H]2C(C)(C)[C@H](NC(=O)c3ccc(N4CCC(CN5CCCC[C@H]5COc5ccc6c(c5)C(=O)N(C5CCC(=O)NC5=O)C6=O)CC4)cc3)C2(C)C)cc(C)c1C#N` (stereo partly drawn) [compound 162, N-((1r,3S)-3-(4-cyano-3,5-dimethylphenoxy)-2,2,4,4-tetramethylcyclobutyl)-4-(4-(((2S)-2-(((2-(2,6-dioxopiperidin-3-yl)-1,3-dioxoisoindolin-5-yl)oxy)methyl)piperidin-1-yl)methyl)piperidin-1-yl)benzamide], the DC50 was less than 1 nM.
Turning to `Cc1cc(O[C@H]2C(C)(C)[C@H](NC(=O)c3ccc(N4CC5(CC(CN(C(C)C)[C@H]6C[C@H](Oc7ccc8c(c7)C(=O)N(C7CCC(=O)NC7=O)C8=O)C6)C5)C4)nn3)C2(C)C)cc(C)c1C#N` (some centres unmarked) [compound 163, N-((1r,3r)-3-(4-cyano-3,5-dimethylphenoxy)-2,2,4,4-tetramethylcyclobutyl)-6-(6-((((1r,3r)-3-((2-(2,6-dioxopiperidin-3-yl)-1,3-dioxoisoindolin-5-yl)oxy)cyclobutyl) (isopropyl)amino)methyl)-2-azaspiro[3.3]heptan-2-yl)pyridazine-3-carboxamide], the DC50 is less than 1 nM.
As to `COc1cc(O[C@H]2C[C@H](N(C)CCOC3CCN(c4ccc(C(=O)N[C@H]5C(C)(C)[C@H](Oc6cc(C)c(C#N)c(C)c6)C5(C)C)cc4)CC3)C2)cc2c1C(=O)N(C1CCC(=O)NC1=O)C2=O` (some centres unmarked) [compound 164, N-((1r,3r)-3-(4-cyano-3,5-dimethylphenoxy)-2,2,4,4-tetramethylcyclobutyl)-4-(4-(2-(((1r,3r)-3-((2-(2,6-dioxopiperidin-3-yl)-7-methoxy-1,3-dioxoisoindolin-5-yl)oxy)cyclobutyl) (methyl)amino)ethoxy)piperidin-1-yl)benzamide], the 50% degradation concentration (DC50) is less than 1 nM.
As to `Cc1cc(O[C@H]2C(C)(C)[C@H](NC(=O)c3ccc(N4CCC(CN(C)[C@@H]5CC[C@H](Oc6ccc7c(c6)C(=O)N(C6CCC(=O)NC6=O)C7=O)C5)CC4)cc3)C2(C)C)cc(C)c1C#N` (stereo partly drawn) [compound 166, N-((1r,3R)-3-(4-cyano-3,5-dimethylphenoxy)-2,2,4,4-tetramethylcyclobutyl)-4-(4-((((1R,3S)-3-((2-(2,6-dioxopiperidin-3-yl)-1,3-dioxoisoindolin-5-yl)oxy)cyclopentyl) (methyl)amino)methyl)piperidin-1-yl)benzamide], the DC50 was less than 1 nM.
As for `Cc1cc(O[C@H]2C(C)(C)[C@H](NC(=O)c3ccc(N4CCO[C@H](CN5CCN(c6ccc7c(c6)C(=O)N(C6CCC(=O)NC6=O)C7=O)CC5)C4)cc3)C2(C)C)cc(C)c1C#N` (stereo partly drawn) [compound 167, N-((1r,3R)-3-(4-cyano-3,5-dimethylphenoxy)-2,2,4,4-tetramethylcyclobutyl)-4-((2R)-2-((4-(2-(2,6-dioxopiperidin-3-yl)-1,3-dioxoisoindolin-5-yl)piperazin-1-yl)methyl)morpholino) benzamide], the half-maximal degradation concentration (DC50) was less than 1 nM.
Consider `CCN(CC1CCN(c2ccc(C(=O)N[C@H]3C(C)(C)[C@H](Oc4cc(C)c(C#N)c(C)c4)C3(C)C)cc2)CC1)[C@H]1C[C@H](Oc2ccc3c(c2)C(=O)N(C2CCC(=O)NC2=O)C3=O)C1` (some centres unmarked) [compound 168, N-((1r,3r)-3-(4-cyano-3,5-dimethylphenoxy)-2,2,4,4-tetramethylcyclobutyl)-4-(4-((((1r,3r)-3-((2-(2,6-dioxopiperidin-3-yl)-1,3-dioxoisoindolin-5-yl)oxy)cyclobutyl) (ethyl)amino)methyl)piperidin-1-yl) benzamide], for which the 50% degradation concentration (DC50) is less than 1 nM.
As for `Cc1cc(O[C@H]2C(C)(C)[C@H](NC(=O)c3ccc(N4CCO[C@@H](CN5CCN(c6ccc7c(c6)C(=O)N(C6CCC(=O)NC6=O)C7=O)CC5)C4)cc3)C2(C)C)cc(C)c1C#N` (stereo partly drawn) [compound 171, N-((1r,3S)-3-(4-cyano-3,5-dimethylphenoxy)-2,2,4,4-tetramethylcyclobutyl)-4-((2S)-2-((4-(2-(2,6-dioxopiperidin-3-yl)-1,3-dioxoisoindolin-5-yl)piperazin-1-yl)methyl)morpholino) benzamide], the half-maximal degradation concentration (DC50) was less than 1 nM.
As for `Cc1cc(O[C@H]2C(C)(C)[C@H](NC(=O)c3ccc(N4CCC(CN5CCC[C@H]5COc5ccc6c(c5)C(=O)N(C5CCC(=O)NC5=O)C6=O)CC4)cc3)C2(C)C)cc(C)c1C#N` (stereo partly drawn) [compound 172, N-((1r,3S)-3-(4-cyano-3,5-dimethylphenoxy)-2,2,4,4-tetramethylcyclobutyl)-4-(4-(((2S)-2-(((2-(2,6-dioxopiperidin-3-yl)-1,3-dioxoisoindolin-5-yl)oxy)methyl)pyrrolidin-1-yl)methyl)piperidin-1-yl)benzamide], the DC50 was less than 1 nM.

These data come from patent US20260053932A1, “COMPOUNDS AND METHODS FOR THE TARGETED DEGRADATION OF ANDROGEN RECEPTOR AND ASSOCIATED METHODS OF USE” (Arvinas Operations, Inc., priority 2020, published 2026).
